Experimental data published in paper PMC6132687, “Stem cells are the most sensitive screening tool to identify toxicity of GATA4-targeted novel small-molecule compounds” (Archives of Toxicology, 2018).
Blank lines part the entries; values can stand above or below the compound they belong to.

Columns and labels:
[1] = system: GATA4–NKX2-5 transcriptional synergy; assay: Luciferase reporter assay of GATA4–NKX2-5 synergistic gene activation in COS-1 cells; type: cell-based, African green monkey; details: 24 h treatment, normalized to DMSO
Experimental: COS-1 cells were used to investigate the compound effects on GATA4–NKX2-5 synergistic gene activation using a luciferase reporter assay (Kinnunen et al. [2015]). Toxicity profiling was carried out in eight cell types: the H9c2 myoblast cell line, NRVCs, CFs, mESCs, MEFs, mESC derivatives from day 5 embryoid bodies (D5EBs), hiPSCs and hiPSC-CMs. All cell cultures were maintained at 37 °C in a humidified atmosphere of 5% carbon dioxide (CO2) and the regular growth medium was used for compound exposures. Cell culture methods and cardiomyocyte differentiation from human pluripotent stem cells are described in Supplementary Information.
The empty expression plasmid MT2 (pMT2) and mouse Gata4 expressing pMT2-Gata4 plasmids were gifts from D. B. Wilson (Department of Pediatrics, St. Louis Children’s Hospital) (Arceci et al. [1993]). The luciferase reporter plasmid pGL3-3xHA containing three Nkx2-5 high-affinity binding sites has been described previously (Kinnunen et al. [2015]). To create mouse Nkx2-5 expressing pMT2-Nkx2-5, the cDNA was cloned from pFLCI-Nkx2-5 (clone D330001C20, Imagenes), which was a kind gift from R. Kerkelä (University of Oulu, Finland), with primers containing the EcoRI restriction site (forward: 5′-[…]-3′ and reverse 5′-[…]-3′) and ligated to pMT2 EcoRI site. The correct clone was identified by digestion with specific restriction enzymes and the sequence was verified by DNA sequencing (DNA Sequencing and Genomics Laboratory, Institute of Biotechnology, University of Helsinki, Finland).
COS-1 cells grown on 96-well plates were transfected with the luciferase reporter plasmid pGL3-3xHA (100 ng/well) and equal amounts of expression vectors pMT2-Gata4 and pMT2-Nkx2-5 (total of 50 ng/well) using Fugene 6 (Promega) at a reagent:DNA ratio of 3:1. Cells transfected with either pMT2, pMT2-Gata4 or pMT2-Nkx2-5 were used to confirm synergistic transactivation of the reporter gene in all experiments. After 6 h of transfection, the cells were treated with compounds or vehicle (0.1% dimethyl sulfoxide, DMSO) and the luminescence was measured 24 h later using Neolite Reporter Gene Assay System (PerkinElmer, Turku, Finland) according to manufacturer’s instructions and Victor2 plate reader (PerkinElmer, Turku, Finland). Each compound was tested in three technical replicates in at least two independent experiments.
A luciferase reporter assay with an artificial promoter containing three high-affinity binding sites for NKX2-5 was used to evaluate the effects of the compounds on GATA4–NKX2-5 transcriptional synergy (Kinnunen et al. [2015]). We have previously shown that while GATA4 alone induces only minimal activation of this promoter, it strongly potentiates NKX2-5-mediated transactivation (Kinnunen et al. [2015]; Välimäki et al. [2017]).

hiPSCs [2] = assay: High-content analysis of proliferation (Ki67, BrdU, DNA) in hiPSCs; type: cell-based, human; details: 24 h
Experimental: (§1) For proliferation studies, the cells were exposed to the test compounds for 24 h and 10 µM BrdU was added to the culture medium for the last 1 h (hiPSCs) or 24 h (hiPSC-CMs) before fixation with 4% paraformaldehyde (PFA) for 15 min at room temperature (rt). The cells were then permeabilized with 0.1% Triton X-100 for 10 min and DNA was hydrolysed with 2 M hydrochloric acid for 30 min at rt followed by neutralization with 0.1 M sodium borate (pH 8.5) for 30 min. Non-specific binding sites were blocked with 4% FBS in phosphate-buffered saline (PBS) for 45 min at rt, whereafter the cells were incubated with anti-Ki67 (1:250) and anti-BrdU (1:250) antibodies for 60 min at rt. Cells were then washed 3 × 5 min with PBS and incubated with Alexa Fluor-conjugated secondary antibodies (1:200) and DAPI (5 µg/ml) for 45 min at rt. In hiPSC-CM cultures, staining with primary antibody against α-actinin (at 1:600) was additionally used to identify myocytes. The plates were imaged and analysed with CellInsight CX5 High Content Screening Platform (Thermo Scientific) using a 10× objective (Olympus UPlanFL N 10×/0.3). For quantification, the cells were first identified based on DAPI fluorescence, which defined the nuclear area for quantifications. In hiPSC-CM cultures, non-myocytes were excluded based on absence of α-actinin staining and nuclear area. The thresholds for α-actinin fluorescence intensity and nuclear area were set manually in each experiment to allow optimal exclusion of non-myocytes. In hiPSC-CMs cultures, the data were collected only from α-actinin positive cells. The thresholds for Ki67+ and BrdU+ cells were also set manually in each experiment as described previously (Mioulane et al. [2012]) to adjust for slight variation in staining intensity.

[3] = system: caspase-3/7 activity in hiPSCs; assay: High-content analysis of caspase-3/7 activation in hiPSCs; type: cell-based, human; details: 4-h exposure
Experimental: To study caspase activation, the cells were exposed to the test compounds for 4 h and then incubated with 3–5 µM CellEvent™ Caspase-3/7 Green Detection Reagent solution in PBS with 5% FBS for 50 min and stained with Hoechst for 10 min at 37 °C. Cells were fixed with 4% PFA and scanned with CellInsight using the 10× objective, or alternatively, the staining solution was replaced with fresh 5% FBS in PBS followed by live cell imaging with CellInsight. Hoechst fluorescence was used to identify the cells and define the nuclear area. The intensity of green fluorescence within the nucleus was quantified as a measure of caspase 3/7 activity.

hiPSC-CMs = assay: High-content analysis of proliferation (Ki67, BrdU, DNA) in hiPSC-CMs; type: cell-based, human; details: 24 h; for average intensity of nuclear Ki67 staining / increase in the percentage of Ki67+ cells compared to DMSO: 30 µM
Experimental: as §1

hiPSCs [4] = assay: High-content analysis of cell viability (MitoTracker) in hiPSCs; type: cell-based, human; details: 24 h
Experimental: To study mitochondrial function using high-content analysis, the cells were plated and treated as in proliferation studies, except that MitoTracker Orange CMTMRos solution (400 nM) was added to the cells for the last 30 min at 37 °C. The accumulation of the MitoTracker probe used is dependent upon mitochondrial membrane potential allowing selective staining of active mitochondria. Following fixation and permeabilization, hiPSC-CMs were in addition stained with anti-α-actinin (Alexa Fluor 488) and DAPI. Cells were identified and hiPSC-CMs discriminated from non-myocytes as described above. MitoTracker intensity corresponding to active mitochondria was analysed in the perinuclear area defined by a 3-pixel ring or a 5-pixel ring around the nucleus in hiPSCs and hiPSC-CMs, respectively. The fluorescence intensity threshold was set manually in each experiment based on the assumption that 2% of control hiPSC-CMs and 5% of control hiPSCs were MitoTracker negative.

cardiac function = system: cardiac function; design: method as in Kinnunen et al. [2018]; details: after myocardial infarction or angiotensin II-induced cardiac hypertrophy; ref Kinnunen et al. [2018]; cited from earlier work

SMILES: COc1ccc(-c2cc(N)nn2C(=O)c2c(-c3ccccc3)noc2C)cc1 [3i-1229]
- effect on GATA4- and NKX2-5-induced gene activation (luciferase reporter activity) [1]: only a weak effect

SMILES: CCN(CC)c1ccc(NC(=O)c2cc(C)oc2-c2ccccc2)cc1 [3i-1148]
- effect on GATA4- and NKX2-5-induced gene activation (luciferase reporter activity) [1]: inhibitory effect

- effect on caspase-3/7 activity [3]: no effect
SMILES: CCN(CC)c1ccc(NC(=O)c2c(C)noc2-c2cc(C)on2)cc1 [3i-1047]
- corresponding average staining intensities (Ki67, BrdU, DNA) (hiPSCs [2]; 1 or 10 µM): no effect
- percentage of BrdU+ cells (hiPSCs [2]; 1 or 10 µM): no effect
- percentage of Ki67+ cells (hiPSCs [2]; 1 or 10 µM): no effect
- percentage of high DNA cells (hiPSCs [2]; 1 or 10 µM): no effect
- effect on GATA4- and NKX2-5-induced gene activation (luciferase reporter activity) [1]: only a weak effect
- average intensity of nuclear Ki67 staining (hiPSC-CMs; hiPSC-CMs): substantial increases
- increase in the percentage of Ki67+ cells compared to DMSO (hiPSC-CMs; hiPSC-CMs): 1.5 fold
- average intensity of nuclear BrdU staining (hiPSC-CMs; hiPSC-CMs): no effect
- average total intensity of DNA staining (hiPSC-CMs; hiPSC-CMs): neither 3i-1000 nor 3i-1047 caused significant changes
- percentage of BrdU+ cells (hiPSC-CMs; hiPSC-CMs): no effect
- percentage of cells with high total intensity of DNA staining (hiPSC-CMs; hiPSC-CMs): neither 3i-1000 nor 3i-1047 caused significant changes
- effect on MitoTracker staining (hiPSCs [4]): did not affect MitoTracker staining

SMILES: CCC(=O)N(Cc1ccc(N(CC)CC)cc1)c1c(-c2ccccc2)noc1C [3i-1120]
- effect on GATA4- and NKX2-5-induced gene activation (luciferase reporter activity) [1]: inhibitory effect

- increase in cells positive for the fluorescent caspase reporter ([3]; vs DMSO): 3.2 fold
SMILES: CCN(CC)c1ccc(NC(=O)c2c(-c3ccccc3)noc2C)cc1 [3i-1000]
- proportion of BrdU-positive cells (hiPSCs [2]; 1 µM): not at 1 µM
- proportion of Ki67 positive cells (hiPSCs [2]; 1 µM): not at 1 µM
- proportion of BrdU-positive cells (hiPSCs [2]; 10 µM): decreased
- proportion of Ki67 positive cells (hiPSCs [2]; 10 µM): decreased
- average intensity of nuclear BrdU staining (hiPSCs [2]): decreased average intensity
- average intensity of nuclear Ki67 staining (hiPSCs [2]): decreased average intensity
- cell numbers (hiPSCs [2]): significantly reduced
- decrease in the average total intensity of DNA staining (hiPSCs [2]): 66%
- decrease in cells with high total DNA staining intensity (G2 phase) (hiPSCs [2]; P = 0.062): 77%
- effect on GATA4- and NKX2-5-induced gene activation (luciferase reporter activity) [1]: inhibitory effect
- decrease in BrdU+ hiPSC-CMs as compared to DMSO (hiPSC-CMs; P = 0.233): 43%
- average intensity of nuclear Ki67 staining (hiPSC-CMs; hiPSC-CMs): substantial increases
- increase in the percentage of Ki67+ cells compared to DMSO (hiPSC-CMs; hiPSC-CMs): 1.7 fold
- average intensity of nuclear BrdU staining (hiPSC-CMs; hiPSC-CMs): tendency for 3i-1000 to induce a decrease
- average total intensity of DNA staining (hiPSC-CMs; hiPSC-CMs): neither 3i-1000 nor 3i-1047 caused significant changes
- percentage of cells with high total intensity of DNA staining (hiPSC-CMs; hiPSC-CMs): neither 3i-1000 nor 3i-1047 caused significant changes
- average MitoTracker intensity in the perinuclear area (hiPSCs [4]; 10 µM): reduced substantially
- increase in the percentage of MitoTracker negative cells as compared to DMSO (hiPSCs [4]; 10 µM): 5.7 fold
- reduction of hiPSC cell numbers (hiPSCs [4]; 10 µM): 98%
- cardiac function (cardiac function): improves cardiac function
